Read-outs that look alike come from different tables or passages of the source.

The test system of one experiment is transglutaminase (TGase). Nature of the experiment: Measurement of TG (TGase inhibitory activity, monodansyl cadaverine / N,N-dimethylcasein fluorescence, FDSS 3000). It counts as biochemical. The method, boiled down: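 Compound (1 μL of 10 mM stock) added to 0.1 mL reaction: 100 mM HEPES-NaOH pH 7.5, 1 mM CaCl2, 20 μM monodansyl cadaverine, 0.05 mg/mL N,N-dimethylcasein, 5 μg/mL TGase. Rate of fluorescence change at 340 nm measured; DMSO control set to 100; TG50 is the concentration halving activity.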

Experiment [1] has as its system SOC (store operated calcium channel). Nature of the experiment: Measurement of SOC IC50 (thapsigargin store depletion, calcium re-addition, CHO cells). The experiment is classed as cell-based. Conditions: read-out: SOC IC50. The procedure:
The SOC (store operated calcium channel)-suppressive action can be measured by the method described in the Example and using, for example, FDSS 3000.
CHO cell culture medium was replaced with a BSS solution which is an extracellular fluidfree of calcium, the compound of the present invention was added 1 min later, and 1 μM thapsigargin was allowed to act thereon 2 min later to deplete intracellular calcium store. […]

Experiment [2] has as its system Truncated N-terminal huntington 150 Q-EGFP-Neuron 2a cells. Kind of experiment: Measurement of x-Fold (polyglutamine aggregation inhibitory activity). It counts as cell-based. The procedure:
In the present invention, the polyglutamine aggregation inhibitory activity (x-Fold) can be measured, for example, by the method described in the Example.
The number of the aggregated cells, and the total number of cells were counted by Array Scan V T1 (manufactured by Cellomics, Pittuburg, USA), and the ratio of the aggregated cells to the total number of cells was determined (x-Fold). […]

[3] abbreviates: TGase activity with compound (10 mM, 1 μL in 0.1 ml enzyme reaction solution), DMSO control taken as 100.
[4] abbreviates: Cricetulus griseus, CHO, CHO cells, 1 μM thapsigargin, 2 mM calcium chloride.
Setting [5] is: Cricetulus griseus, CHO, Table 1.
Setting [6] is: ratio of aggregated cells to total number of cells, compound 20 μM, 20 hr, almost 1 without compound, smaller = stronger inhibition.
Setting [7] is: CHO cells, 1 μM thapsigargin, 2 mM calcium chloride.
The mark [8] stands for this setting: TGase inhibitory activity value, Table 1.
[9] abbreviates: polyglutamine aggregation inhibitory activity, Table 1.

With `NCC(N)C(=O)OB(c1ccccc1)c1ccccc1` (centres unmarked) [Example 272, diphenyl(2,3-diaminopropionate-O,N)borane], the “TGase activity remaining (% of DMSO control = 100)” value in the experiment on transglutaminase (TGase) (setting [3]) stood at 83; in the experiment with transglutaminase (TGase) (TGase inhibitory activity value, Table 1, listed as 2043), 83. The IC50 in experiment [1] (setting [4]) and in experiment [1] (setting [5]) was 300 nM in each case. For the same molecule, the x-Fold stood at 0.09 in experiment [2] (polyglutamine aggregation inhibitory activity, Table 1, listed as 2043) and 0.09 in experiment [2] (setting [6]).
As to `NC(=O)CCC(N)C(=O)OB(c1ccccc1)c1ccc(Oc2ccc(B(OC(=O)C(N)CCC(N)=O)c3ccccc3)cc2)cc1` (centres unmarked) [Example 273, bis(4,4′-(phenyl-glutamineboryl)phenyl)ether], the “TGase activity remaining (% of DMSO control = 100)” value in the experiment on transglutaminase (TGase) (setting [3]) stood at 83; with transglutaminase (TGase) (TGase inhibitory activity value, Table 1, listed as 1024), 83. The IC50 in experiment [1] (setting [7]) stood at 250 nM. The x-Fold in experiment [2] (polyglutamine aggregation inhibitory activity, Table 1, listed as 1024) is 0.56; in experiment [2] (setting [6]), 0.56.
In the case of `NC(=O)CC(N)C(=O)OB(c1ccccc1)c1ccc(Oc2ccc(B(OC(=O)C(N)CC(N)=O)c3ccccc3)cc2)cc1` (centres unmarked) [Example 274, bis(4,4′-(phenylasparagineboryl)phenyl)ether], in the experiment on transglutaminase (TGase) (setting [3]), the “TGase activity remaining (% of DMSO control = 100)” value was found to be 56. Further, the half-maximal inhibitory concentration (IC50) in experiment [1] (setting [7]) turned out to be 300 nM. Moreover, the x-Fold in experiment [2] (setting [6]) is 0.59.
For `NC(CCC(=O)O)C(=O)OB(c1ccccc1)c1ccc(Oc2ccc(B(OC(=O)C(N)CCC(=O)O)c3ccc(CO)cc3)cc2)cc1` (centres unmarked) [Example 275, (4-(phenyl-glutamic acid boryl)phenyl)-(4′-(hydroxymethylphenyl-glutamic acid boryl)phenyl)ether], the “TGase activity remaining (% of DMSO control = 100)” value with transglutaminase (TGase) (setting [3]) worked out at 117. The concentration for half-maximal inhibition (IC50) in experiment [1] (setting [4]) was 300 nM. Besides, the x-Fold in experiment [2] (setting [6]) was 0.67.
As to `O=C(OB(c1ccccc1)c1ccccc1)C1CCCN1` (centres unmarked) [Example 277, diphenyl(prolinate-O,N)borane], the “TGase activity remaining (% of DMSO control = 100)” value with transglutaminase (TGase) (setting [3]) and in the experiment on transglutaminase (TGase) (setting [8]) was 105 throughout. For the same molecule, the IC50 in experiment [1] (setting [4]) and in experiment [1] (setting [5]) was 300 nM throughout. The x-Fold in experiment [2] (setting [9]) and in experiment [2] (setting [6]) was 0.98 in each case.
`NCCOB(c1ccccc1)c1cccc(COCc2cccc(Oc3ccccc3)c2)c1` [Example 278, (3-phenoxybenzyl)-(3′-(phenyl-2-aminoethoxyboryl)benzyl)ether]: the “TGase activity remaining (% of DMSO control = 100)” value with transglutaminase (TGase) (setting [3]) and in the experiment on transglutaminase (TGase) (setting [8]) was 2 each time. Besides, the half-inhibitory concentration (IC50) in experiment [1] (setting [4]) and in experiment [1] (setting [5]) was 300 nM in each case. In addition, the x-Fold in experiment [2] (setting [9]) and in experiment [2] (setting [6]) was 1.08 in each case.
As to `Cc1ccc(B(OC(=O)C(N)CC(N)=O)c2ccc(C)c(Cl)c2)cc1Cl` (centres unmarked) [Example 282, di(3-chloro-4-methylphenyl)(asparaginate-O,N)borane], the “TGase activity remaining (% of DMSO control = 100)” value in the experiment on transglutaminase (TGase) (setting [3]) turned out to be 112. The IC50 in experiment [1] (setting [4]) turned out to be 300 nM. Moreover, the x-Fold in experiment [2] (setting [6]) stood at 0.95.
Take `Cc1ccc(B(Sc2ccccc2N)c2ccc(C)c(Cl)c2)cc1Cl` [Example 283, di(3-chloro-4-methylphenyl) 2-aminophenylthioborane]: the “TGase activity remaining (% of DMSO control = 100)” value in the experiment with transglutaminase (TGase) (setting [3]) and in the experiment with transglutaminase (TGase) (setting [8]) was 12 throughout. Further, the IC50 in experiment [1] (setting [4]) and in experiment [1] (setting [5]) was 900 nM in each case. Also, the x-Fold in experiment [2] (setting [9]) and in experiment [2] (setting [6]) was 0.83 each time.
Regarding `NCCSB(c1ccc(C(F)(F)F)cc1)c1ccc(C(F)(F)F)cc1` [Example 285, di(4-trifluoromethylphenyl) 2-aminoethylthioborane], the “TGase activity remaining (% of DMSO control = 100)” value in the experiment on transglutaminase (TGase) (setting [3]) and with transglutaminase (TGase) (setting [8]) was 51 each time. Moreover, the IC50 in experiment [1] (setting [4]) and in experiment [1] (setting [5]) was 2000 nM each time. In addition, the x-Fold in experiment [2] (setting [9]) and in experiment [2] (setting [6]) was 0.99 each time.
For the molecule `Cc1ccc(B(OC(=O)C(N)C(C)O)c2ccc(C)c(Cl)c2)cc1Cl` (centres unmarked) [Example 291, di(3-chloro-4-methylphenyl)(allothreoninate-O,N)borane], the “TGase activity remaining (% of DMSO control = 100)” value with transglutaminase (TGase) (setting [3]) and in the experiment with transglutaminase (TGase) (setting [8]) was 50 throughout. For the same molecule, the IC50 in experiment [1] (setting [4]) and in experiment [1] (setting [5]) was 500 nM in each case. Besides, the x-Fold in experiment [2] (setting [9]) and in experiment [2] (setting [6]) was 1.02 each time.
Turning to `CCCCC(N)C(=O)OB(c1ccc(C)c(Cl)c1)c1ccc(C)c(Cl)c1` (centres unmarked) [Example 292, di(3-chloro-4-methylphenyl)(norloysinate-O,N)borane], the “TGase activity remaining (% of DMSO control = 100)” value in the experiment on transglutaminase (TGase) (setting [3]) was 146; in the experiment on transglutaminase (TGase) (TGase inhibitory activity value, Table 1, listed as 5020), 146. Also, the IC50 in experiment [1] (setting [4]) and in experiment [1] (setting [5]) was 1000 nM in each case. In addition, the x-Fold in experiment [2] (polyglutamine aggregation inhibitory activity, Table 1, listed as 5020) was 1.00; in experiment [2] (setting [6]), 1.00.
As to `CN(C)CCSB(c1ccccc1)c1ccccc1` [Example 294, diphenyl dimethylaminoethylthioborane], the “TGase activity remaining (% of DMSO control = 100)” value with transglutaminase (TGase) (setting [3]) and in the experiment on transglutaminase (TGase) (setting [8]) was 114 throughout. For the same molecule, the concentration for half-maximal inhibition (IC50) in experiment [1] (setting [4]) and in experiment [1] (setting [5]) was 2000 nM each time. Besides, the x-Fold in experiment [2] (setting [9]) and in experiment [2] (setting [6]) was 0.96 each time.
For `Cc1ccc(B(SCCN(C)C)c2ccc(C)c(Cl)c2)cc1Cl` [Example 295, di(3-chloro-4-methylphenyl)dimethylaminoethylthioborane], the “TGase activity remaining (% of DMSO control = 100)” value in the experiment with transglutaminase (TGase) (setting [3]) and in the experiment with transglutaminase (TGase) (setting [8]) was 107 each time. In addition, the concentration for half-maximal inhibition (IC50) in experiment [1] (setting [4]) and in experiment [1] (setting [5]) was 800 nM in each case. The x-Fold in experiment [2] (setting [9]) and in experiment [2] (setting [6]) was 0.92 each time.
As to `NC(=O)NCCCC(N)C(=O)OB(c1ccccc1)c1ccccc1` (centres unmarked) [Example 307, diphenyl(citrullinate-O,N)borane], the “TGase activity remaining (% of DMSO control = 100)” value with transglutaminase (TGase) (setting [3]) and in the experiment with transglutaminase (TGase) (setting [8]) was 54 throughout. Further, the IC50 in experiment [1] (setting [4]) and in experiment [1] (setting [5]) was 500 nM throughout. Besides, the x-Fold in experiment [2] (setting [9]) and in experiment [2] (setting [6]) was 1.06 throughout.
Turning to `NCCCC(N)C(=O)OB(c1ccccc1)c1ccccc1` (centres unmarked) [Example 308, diphenyl(ornithinate-O,N)borane], the “TGase activity remaining (% of DMSO control = 100)” value came to 27 in the experiment with transglutaminase (TGase) (setting [3]) and 27 with transglutaminase (TGase) (TGase inhibitory activity value, Table 1, listed as 7020). Besides, the 50% inhibitory concentration (IC50) in experiment [1] (setting [4]) and in experiment [1] (setting [5]) was 500 nM in each case. Further, the x-Fold in experiment [2] (polyglutamine aggregation inhibitory activity, Table 1, listed as 7020) worked out at 1.05; in experiment [2] (setting [6]), 1.05.
In the case of `Cc1ccc(B(O)c2ccc(COCc3ccc(B(O)c4ccc(C)c(Cl)c4)cc3)cc2)cc1Cl` [Example 322, bis(4,4′-(3-chloro-4-methylphenylhydroxyboryl)benzyl)ether], in the experiment with transglutaminase (TGase) (setting [3]), the “TGase activity remaining (% of DMSO control = 100)” value is given as 98. In addition, the IC50 in experiment [1] (setting [7]) is 200 nM. The x-Fold in experiment [2] (setting [6]) was found to be 0.32.
`OB(c1ccc(Oc2ccc(B(O)c3ccc(C(F)(F)F)cc3)cc2)cc1)c1ccc(C(F)(F)F)cc1` [Example 325, bis(4-(4-trifluoromethylphenylhydroxyboryl)phenyl)ether]: the “TGase activity remaining (% of DMSO control = 100)” value with transglutaminase (TGase) (setting [3]) and with transglutaminase (TGase) (setting [8]) was 92 in each case. Also, the IC50 in experiment [1] (setting [4]) and in experiment [1] (setting [5]) was 4000 nM each time. The x-Fold in experiment [2] (setting [9]) and in experiment [2] (setting [6]) was 0.99 each time.
As to `OB(c1ccccc1)c1ccc(COCc2ccccc2B(O)c2ccccc2)cc1` [Example 331, (2-(phenylhydroxyboryl)benzyl)(4-(phenylhydroxyboryl)benzyl)ether], the “TGase activity remaining (% of DMSO control = 100)” value in the experiment with transglutaminase (TGase) (setting [3]) and with transglutaminase (TGase) (setting [8]) was 101 each time. The half-maximal inhibitory concentration (IC50) in experiment [1] (setting [4]) and in experiment [1] (setting [5]) was 1000 nM throughout. For the same molecule, the x-Fold in experiment [2] (setting [9]) and in experiment [2] (setting [6]) was 0.98 in each case.
Take `NCCOB(c1ccccc1)c1ccc(COCc2cccc(B(OCCN)c3ccccc3)c2)cc1` [Example 332, (3-(phenylaminoethoxyboryl)benzyl)(4-(phenylaminoethoxyboryl)benzyl)ether]: the “TGase activity remaining (% of DMSO control = 100)” value with transglutaminase (TGase) (setting [3]) and with transglutaminase (TGase) (setting [8]) was 21 in each case. The half-inhibitory concentration (IC50) in experiment [1] (setting [4]) and in experiment [1] (setting [5]) was 200 nM each time. Besides, the x-Fold in experiment [2] (setting [9]) and in experiment [2] (setting [6]) was 0.98 throughout.
Regarding `NCCOB(c1ccccc1)c1cccc(COCc2ccccc2B(OCCN)c2ccccc2)c1` [Example 334], the “TGase activity remaining (% of DMSO control = 100)” value with transglutaminase (TGase) (setting [3]) and with transglutaminase (TGase) (setting [8]) was 21 throughout. The concentration for half-maximal inhibition (IC50) in experiment [1] (setting [4]) and in experiment [1] (setting [5]) was 300 nM throughout. The x-Fold in experiment [2] (setting [9]) and in experiment [2] (setting [6]) was 1.02 in each case.

The values above are taken from patent US8853424B2 (Japan Science and Technology Agency, priority 2008, dated 2014).
